# Key:
# Ah receptor = conditions: Carver et al., 1994 JBC 269:30109-30112; cited from earlier work
# AhR [1] = target: T1, AhR (Cavia porcellus, UniProt Q6J287); assay: Receptor capture assay, real-time PCR, rodent cytosol as source of AhR; assay type: biochemical; design: EC50 of dose-response curve; other: TCDD and BNF curves performed simultaneously; slope of dose-response curve; conditions: TCDD and BNF curves performed simultaneously
# T1 sequence (Q6J287 1-846): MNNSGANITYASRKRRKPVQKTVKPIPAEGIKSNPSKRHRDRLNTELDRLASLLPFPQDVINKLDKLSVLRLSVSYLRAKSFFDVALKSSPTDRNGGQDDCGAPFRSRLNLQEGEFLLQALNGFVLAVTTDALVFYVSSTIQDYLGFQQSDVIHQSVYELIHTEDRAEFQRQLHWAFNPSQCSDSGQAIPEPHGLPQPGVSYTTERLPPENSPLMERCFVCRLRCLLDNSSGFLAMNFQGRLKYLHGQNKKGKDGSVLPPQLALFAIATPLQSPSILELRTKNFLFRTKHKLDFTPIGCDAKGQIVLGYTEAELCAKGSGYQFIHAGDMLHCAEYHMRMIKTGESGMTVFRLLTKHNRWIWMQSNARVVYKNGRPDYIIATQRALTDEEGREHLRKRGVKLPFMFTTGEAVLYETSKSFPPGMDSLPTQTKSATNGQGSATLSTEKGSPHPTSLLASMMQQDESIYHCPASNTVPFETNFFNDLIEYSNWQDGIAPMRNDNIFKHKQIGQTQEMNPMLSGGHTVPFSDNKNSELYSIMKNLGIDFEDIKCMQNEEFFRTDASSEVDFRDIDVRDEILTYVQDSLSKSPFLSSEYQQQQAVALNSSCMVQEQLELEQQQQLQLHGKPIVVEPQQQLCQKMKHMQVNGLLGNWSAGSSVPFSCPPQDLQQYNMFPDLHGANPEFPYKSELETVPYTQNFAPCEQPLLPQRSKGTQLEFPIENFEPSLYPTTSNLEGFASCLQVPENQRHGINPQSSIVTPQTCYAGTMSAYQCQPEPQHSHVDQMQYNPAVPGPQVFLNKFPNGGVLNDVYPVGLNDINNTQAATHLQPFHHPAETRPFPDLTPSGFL
# Procedure: (§1) A set of calibrators consisting of 5000, 2500, 1250, […], 313, 156, and 78 parts per trillion (ppt or pg/ml) 2,3,7,8-tetrachlorodibenzo-p-dioxin (TCDD) was prepared in methanol. In addition to TCDD a set of calibrators for AhR agonist, beta-naphthoflavone (BNF) was prepared and analyzed in the assay. Separately, 25 ul of 1:50,000 dilution of 10 uM stock nucleic acid-tracer was added per 1 ml of rodent cytosol, which was the source of AhR, and was aliquoted into glass tubes. The standards were diluted 1:20 into 50-100 ul of rodent cytosol, and incubated for 1-2 hr at room temperature to 37° C. Following incubation, 40 to 100 ul of the reaction was transferred to each well of the antibody-coated Capture Strip and incubated on a shaking platform for 30 min to 1 hr at room temperature. The Capture Strips were washed 5 times with Wash Buffer B, and aspirated; optionally soaking wells for 30 sec-5 min with wash buffer during each cycle. Taqman® Universal PCR Master Mix, primers, and Taqman® probe (Applied Biosystems, Calif.) were added, and adhesive cover applied. PCR was performed and analyzed using an ABI PRISM® 7700, using default settings: 50° C., 2 min, 95° C. 10 min, and 40 cycles of [95° C., 15 sec, 60° C., 60 sec]. A threshold cycle (Ct) was determined for each reaction The Ct represents the PCR cycle at which an increase in reporter fluorescence above baseline signal can first be detected.
# AhR [2] = assay: as above; assay type: biochemical; conditions: TCDD 625 ppt
# AhR [3] = target: T2, AhR (Rattus norvegicus, UniProt P41738); assay: Receptor capture assay, real-time PCR, AhR derived from rat; assay type: biochemical
# T2 construct: The cytosol containing AhR heteromers was stored at; from tissue; host or cells: liver cytosol of Long-Evans rats
# Procedure: as §1, with “10 min, and 40 cycles of [95° C., 15 sec, 60° C., 60 sec].” left out
# T2 sequence (P41738 10-853): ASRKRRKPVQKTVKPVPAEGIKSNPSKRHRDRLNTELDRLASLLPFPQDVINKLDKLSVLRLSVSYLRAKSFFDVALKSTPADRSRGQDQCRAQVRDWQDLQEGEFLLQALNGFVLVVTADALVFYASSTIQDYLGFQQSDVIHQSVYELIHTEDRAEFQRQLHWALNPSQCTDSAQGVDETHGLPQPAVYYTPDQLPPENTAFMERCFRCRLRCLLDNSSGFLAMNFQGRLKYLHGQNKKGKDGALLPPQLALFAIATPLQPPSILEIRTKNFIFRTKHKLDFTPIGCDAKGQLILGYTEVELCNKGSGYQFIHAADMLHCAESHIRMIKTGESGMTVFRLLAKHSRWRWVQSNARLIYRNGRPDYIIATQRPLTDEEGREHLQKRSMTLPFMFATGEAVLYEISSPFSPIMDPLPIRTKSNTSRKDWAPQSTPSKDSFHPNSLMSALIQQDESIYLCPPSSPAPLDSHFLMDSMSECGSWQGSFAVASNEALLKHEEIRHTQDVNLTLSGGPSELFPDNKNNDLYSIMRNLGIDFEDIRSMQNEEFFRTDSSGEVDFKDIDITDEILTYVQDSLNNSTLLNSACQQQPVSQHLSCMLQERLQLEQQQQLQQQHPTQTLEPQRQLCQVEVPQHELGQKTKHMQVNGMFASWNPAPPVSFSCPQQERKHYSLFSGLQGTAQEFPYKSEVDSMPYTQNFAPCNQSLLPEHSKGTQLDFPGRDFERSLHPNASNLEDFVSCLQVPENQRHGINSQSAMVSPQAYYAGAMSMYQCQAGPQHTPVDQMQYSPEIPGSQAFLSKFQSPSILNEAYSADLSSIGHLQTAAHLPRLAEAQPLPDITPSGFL
# T2 sequence (P41739 whole entry partner): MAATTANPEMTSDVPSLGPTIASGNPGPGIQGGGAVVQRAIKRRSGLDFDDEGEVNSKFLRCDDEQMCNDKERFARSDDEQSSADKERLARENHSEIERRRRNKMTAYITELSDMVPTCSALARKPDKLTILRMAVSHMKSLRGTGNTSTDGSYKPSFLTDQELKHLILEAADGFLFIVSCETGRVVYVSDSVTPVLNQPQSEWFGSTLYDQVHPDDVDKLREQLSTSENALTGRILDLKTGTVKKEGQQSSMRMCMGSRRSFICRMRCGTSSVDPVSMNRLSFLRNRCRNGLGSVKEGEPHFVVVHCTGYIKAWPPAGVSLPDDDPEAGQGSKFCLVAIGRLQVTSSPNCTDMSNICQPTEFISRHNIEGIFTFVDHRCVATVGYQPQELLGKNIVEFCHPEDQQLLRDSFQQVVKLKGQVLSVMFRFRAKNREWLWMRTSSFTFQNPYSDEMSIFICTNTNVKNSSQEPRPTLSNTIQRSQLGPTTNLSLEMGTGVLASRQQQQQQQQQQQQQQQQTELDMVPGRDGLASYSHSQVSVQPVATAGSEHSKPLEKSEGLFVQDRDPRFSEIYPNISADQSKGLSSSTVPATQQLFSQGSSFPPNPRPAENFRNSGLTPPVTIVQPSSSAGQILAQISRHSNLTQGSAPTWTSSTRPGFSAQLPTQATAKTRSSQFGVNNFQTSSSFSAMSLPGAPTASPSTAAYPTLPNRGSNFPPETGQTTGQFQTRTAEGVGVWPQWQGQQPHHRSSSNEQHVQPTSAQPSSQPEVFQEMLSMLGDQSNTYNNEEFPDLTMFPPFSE
Compound,affinity for the Ah receptor relative to TCDD (Ah receptor),slope of dose-response curve (AhR [1]),EC50 (AhR [1]; read-out: EC50 of dose-response curve) [nM],Ct Values (AhR [2]),slope of dose-response curve (AhR [3]),EC50 of dose-response curve (AhR [3]; pg of TCDD in the assay) [pg]
"O=c1cc(-c2ccccc2)oc2ccc3ccccc3c12 [BNF, beta-naphthoflavone]",approximately an order of magnitude less affinity for the Ah receptor than TCDD,−0.7637,0.04,,,
"Clc1cc2c(cc1Cl)Oc1cc(Cl)c(Cl)cc1O2 [TCDD, 2,3,7,8-tetrachlorodibenzo-p-dioxin]",,−1.195,,22.23,−1.208,2.8
